Measurements reported in US12435059B2, “AMP-activated protein kinase inhibitors and methods of making and using the same” (The Regents of the University of Colorado, priority 2019, dated 2025).
Like-named read-outs stand apart in the source and are kept apart here.

Legend:
Test in all cases: biochemical
Type in all cases: binding
[1] = biological target: 468 kinases (Homo sapiens, UniProt O00506); details: YSK1; read-out: % Inhibition @ 100 nM
[2] = biological target: 468 kinases (Homo sapiens, UniProt O00750); details: PIK3C2B; read-out: % Inhibition @ 100 nM
[3] = biological target: 468 kinases (Homo sapiens, UniProt O15197); details: EPHB6; read-out: % Inhibition @ 100 nM
[4] = biological target: 468 kinases (Homo sapiens, UniProt P00519, M351T); details: ABL1 (M351T)-phosphorylated; read-out: % Inhibition @ 100 nM
[5] = biological target: 468 kinases (Homo sapiens, UniProt P00533, DEL746-750); details: EGFR(E746-A750del); read-out: % Inhibition @ 100 nM
[6] = biological target: 468 kinases (Homo sapiens, UniProt P04629); details: TRKA; read-out: % Inhibition @ 100 nM
[7] = biological target: 468 kinases (Homo sapiens, UniProt P07948); details: LYN; read-out: % Inhibition @ 100 nM
[8] = biological target: 468 kinases (Homo sapiens, UniProt P14616); details: INSRR; read-out: % Inhibition @ 100 nM
[9] = biological target: 468 kinases (Homo sapiens, UniProt P22694); details: PKAC-beta; read-out: % Inhibition @ 100 nM
[10] = biological target: 468 kinases (Homo sapiens, UniProt P29323); details: EPHB2; read-out: % Inhibition @ 100 nM
[11] = biological target: 468 kinases (Homo sapiens, UniProt P36888, K663Q); details: FLT3(K663Q); read-out: % Inhibition @ 100 nM
[12] = biological target: 468 kinases (Homo sapiens, UniProt P49674); details: CSNK1E; read-out: % Inhibition @ 100 nM
[13] = biological target: 468 kinases (Homo sapiens, UniProt P52564); details: MEK6; read-out: % Inhibition @ 100 nM
[14] = biological target: 468 kinases (Homo sapiens, UniProt P68400); details: CSNK2A1; read-out: % Inhibition @ 100 nM
[15] = biological target: 468 kinases (Homo sapiens, UniProt Q02779); details: MLK2; read-out: % Inhibition @ 100 nM
[16] = biological target: 468 kinases (Homo sapiens, UniProt Q12866); details: MERTK; read-out: % Inhibition @ 100 nM
[17] = biological target: 468 kinases (Homo sapiens, UniProt Q13177); details: PAK2; read-out: % Inhibition @ 100 nM
[18] = biological target: 468 kinases (Homo sapiens, UniProt Q15418); details: read-out: % Inhibition @ 100 nM
[19] = biological target: 468 kinases (Homo sapiens, UniProt Q15835); details: GRK1; read-out: % Inhibition @ 100 nM
[20] = biological target: 468 kinases (Homo sapiens, UniProt Q16288); details: TRKC; read-out: % Inhibition @ 100 nM
[21] = biological target: 468 kinases (Homo sapiens, UniProt Q6ZWH5); details: NEK10; read-out: % Inhibition @ 100 nM
[22] = biological target: 468 kinases (Homo sapiens, UniProt Q7L7X3); details: TAOK1; read-out: % Inhibition @ 100 nM
[23] = biological target: 468 kinases (Homo sapiens, UniProt Q8IWQ3); details: BRSK2; read-out: % Inhibition @ 100 nM
[24] = biological target: 468 kinases (Homo sapiens, UniProt Q92918); details: HPK1; read-out: % Inhibition @ 100 nM
[25] = biological target: 468 kinases (Homo sapiens, UniProt Q9BRS2); details: RIOK1; read-out: % Inhibition @ 100 nM
[26] = biological target: 468 kinases (Homo sapiens, UniProt Q9BX84); details: TRPM6; read-out: % Inhibition @ 100 nM
[27] = biological target: 468 kinases (Homo sapiens, UniProt Q9H2G2); details: SLK; read-out: % Inhibition @ 100 nM
[28] = biological target: 468 kinases (Homo sapiens, UniProt Q9H3Y6); details: SRMS; read-out: % Inhibition @ 100 nM
[29] = biological target: 468 kinases (Homo sapiens, UniProt Q9HBY8); details: SGK2; read-out: % Inhibition @ 100 nM
[30] = biological target: 468 kinases (Homo sapiens, UniProt Q9P1W9); details: PIM2; read-out: % Inhibition @ 100 nM
[31] = biological target: 468 kinases (Homo sapiens, UniProt Q9UIK4); details: DAPK2; read-out: % Inhibition @ 100 nM
[32] = tested on: 468 kinases; details: for Number of kinases inhibited >90%: at 100 nM, of 468 kinases

Structure (SMILES) | inhibition at 0.1 µM [1] | inhibition at 0.1 µM [2] | inhibition at 0.1 µM [3] | inhibition at 0.1 µM [4] | inhibition at 0.1 µM [5] | inhibition at 0.1 µM [6] | inhibition at 0.1 µM [7] | inhibition at 0.1 µM [8] | inhibition at 0.1 µM [9] | inhibition at 0.1 µM [10] | inhibition at 0.1 µM [11] | inhibition at 0.1 µM [12] | inhibition at 0.1 µM [13] | inhibition at 0.1 µM [14] | inhibition at 0.1 µM [15] | inhibition at 0.1 µM [16] | inhibition at 0.1 µM [17] | inhibition at 0.1 µM ([18]; RSK1(Kin.Dom.1-N-terminal)) | inhibition at 0.1 µM ([18]; RSK1(Kin.Dom.2-C-terminal)) | inhibition at 0.1 µM [19] | further results
CCN(CC)CCNC(=O)c1c(C)[nH]c(/C=C2\C(=O)Nc3ccc(CCO)cc32)c1C [Compound No. 10, (Z)—N-(2-(Diethylamino)ethyl)-5-((5-(2-hydroxyethyl)-2-oxoindolin-3-ylidene)methyl)-2,4-dimethyl-1H-pyrrole-3-carboxamide] | 21% | 0% | 0% | 24% | 32% | 95.5% | 6% | 1% | 0% | 3% | 96.4% | 37% | 11% | 0% | 18% | 71% | 0% | 4% | 0% | 39% | inhibition at 0.1 µM [20]: 60%; inhibition at 0.1 µM [21]: 10%; inhibition at 0.1 µM [22]: 22%; inhibition at 0.1 µM [23]: 32%; inhibition at 0.1 µM [24]: 96.6%; inhibition at 0.1 µM [25]: 88%; inhibition at 0.1 µM [26]: 0%; inhibition at 0.1 µM [27]: 59%; inhibition at 0.1 µM [28]: 13%; inhibition at 0.1 µM [29]: 0%; inhibition at 0.1 µM [30]: 8%; inhibition at 0.1 µM [31]: 0%; % Inhibition @ 100 nM ([32]; EGFR(L747-E749del, A750P)): 0%; % Inhibition @ 100 nM ([32]; EGFR(L747-S752del, P753S)): 23%; % Inhibition @ 100 nM ([32]; EGFR(L747-T751del,Sins)): 37%; % Inhibition @ 100 nM ([32]; FLT3(ITD)): 99.3%; % Inhibition @ 100 nM ([32]; FLT3(ITD,D835V)): 99.15%; % Inhibition @ 100 nM ([32]; FLT3(ITD,F691L)): 100%; Number of kinases inhibited >90% [32]: 28 kinases
CCN(CC)CCNC(=O)c1c(C)[nH]c(/C=C2\C(=O)Nc3ccc(CCC(N)=O)cc32)c1C [Compound No. 16, (Z)-5-((5-(3-Amino-3-oxopropyl)-2-oxoindolin-3-ylidene)methyl)-N-(2-(diethylamino)ethyl)-2,4-dimethyl-1H-pyrrole-3-carboxamide] | 22% | 24% | 34% | 22% | 7% | 97.4% | 9% | 10% | 13% | 10% | 92.9% | 4% | 25% | 78% | 7% | 68% | 0% | 20% | 30% | 37% | inhibition at 0.1 µM [20]: 63%; inhibition at 0.1 µM [21]: 20%; inhibition at 0.1 µM [22]: 53%; inhibition at 0.1 µM [23]: 25%; inhibition at 0.1 µM [24]: 95.2%; inhibition at 0.1 µM [25]: 87%; inhibition at 0.1 µM [26]: 29%; inhibition at 0.1 µM [27]: 37%; inhibition at 0.1 µM [28]: 27%; inhibition at 0.1 µM [29]: 14%; inhibition at 0.1 µM [30]: 0%; inhibition at 0.1 µM [31]: 7%; % Inhibition @ 100 nM ([32]; EGFR(L747-E749del, A750P)): 27%; % Inhibition @ 100 nM ([32]; EGFR(L747-S752del, P753S)): 5%; % Inhibition @ 100 nM ([32]; EGFR(L747-T751del,Sins)): 11%; % Inhibition @ 100 nM ([32]; FLT3(ITD)): 97.2%; % Inhibition @ 100 nM ([32]; FLT3(ITD,D835V)): 100%; % Inhibition @ 100 nM ([32]; FLT3(ITD,F691L)): 100%; Number of kinases inhibited >90% [32]: 33 kinases
